Among the data in patent publication US9321767B2, “Azabenzimidazoles as respiratory syncytial virus antiviral agents” (JANSSEN SCIENCES IRELAND UC, priority 2010, dated 2016) are EC50 and TOX-HELA_EC50 values, retold here.

Where two headings read alike, the source gives them in different places.

The test system of data set [1] is rgRSV224 virus. Put plainly: microbe, parasite or virus in culture. It is filed as cell-based, respiratory syncytial virus (RSV). As to conditions: read-out: RSV-wt_EC50. The protocol: (§1) Black 96-well clear-bottom microtiter plates (Corning, Amsterdam, The Netherlands) were filled in duplicate using a customized robot system with serial 4-fold dilutions of compound in a final volume of 50 μl culture medium [RPMI medium without phenol red, 10% FBS, 0.04% gentamycin (50 mg/mL) and 0.5% DMSO]. Then, 100 μl of a HeLa cell suspension (5×10^4 cells/mL) in culture medium was added to each well followed by the addition of 50 μl rgRSV224 (MOI=0.02) virus in culture medium using a multidrop dispenser (Thermo Scientific, Erembodegem, Belgium). rgRSV224 virus is an engineered virus that includes an additional GFP gene (Hallak et al, 2000) and was in-licensed from the NIH (Bethesda, Md., USA). Medium, virus- and mock-infected controls were included in each test. Cells were incubated at 37° C. in a 5% CO2 atmosphere. Three days post-virus exposure, viral replication was quantified by measuring GFP expression in the cells by a MSM laser microscope (Tibotec, Beerse, Belgium). The EC50 was defined as the 50% inhibitory concentration for GFP expression. In parallel, compounds were incubated for three days in a set of white 96-well microtitier plates (Corning) and the cytotoxicity of compounds in HeLa cells was determined by measuring the ATP content of the cells using the ATPlite kit (PerkinElmer, Zaventem, Belgium) according to the manufacturer's instructions. The CC50 was defined as the 50% concentration for cytotoxicity.

For data set [2], the system named is HeLa cells. Put plainly: Cytotoxicity in HeLa cells, ATP content (ATPlite kit). It is filed as cell-based. As for the experimental part: as §1
The mark [3] stands for this setting: human respiratory syncytial virus, HeLa, 72 h.
The mark [4] stands for this setting: HeLa cells, three days incubation, ATP content.

For the compound `O=c1n(Cc2nc3cnccc3n2CCCCO)c2cnccc2n1C1CC1` [Compound 35], the EC50 in data set [1] (rgRSV224 in HeLa cells, three days post-virus exposure, GFP expression) was found to be 79.5 nM. In data set [2], this compound registered a TOX-HELA_EC50 of over 98.3603 µM.

Take `CC(C)CCn1c(Cn2c(=O)n(C3COC3)c3ccncc32)nc2cnccc21` [Compound 36]: the EC50 in data set [1] (setting [3]) came out at 94.9 nM. The compound also showed a TOX-HELA_EC50 in data set [2] (setting [4]) of over 9.836 µM.

For `CN(C)c1nccc2c1nc(Cn1c(=O)n(C3CC3)c3ccncc31)n2CCCCO` [Compound 37], the EC50 in data set [1] (setting [3]) is 274 nM. Also, the TOX-HELA_EC50 in data set [2] (setting [4]) was over 9.836 µM.

Turning to `O=c1n(Cc2nc3c(Cl)nccc3n2CCCCOCc2ccccc2)c2cnccc2n1C1CC1` [Compound 38, 3-((1-(4-benzyloxy)butyl)-4-chloro-1H-imidazo[4,5-c]pyridin-2-yl)methyl-1-cyclopropyl-1H-imidazo[4,5-c]pyridin-2(3H)-one], in data set [1] (setting [3]), the EC50 is 1480 nM. For the same compound, the TOX-HELA_EC50 in data set [2] (setting [4]) is over 98.3603 µM.

On to `O=c1n(Cc2nc3nc(Cl)ccc3n2CCCC(F)(F)F)c2cnccc2n1C1CC1` [Compound 39, 3-((5-chloro-1-(4,4,4-trifluorobutyl)-1H-imidazo[4,5-b]pyridin-2-yl)methyl)-1-cyclopropyl-1H-imidazo[4,5-c]pyridin-2(3H)-one], for which the EC50 in data set [1] (setting [3]) was found to be 0.96 nM. Moreover, the TOX-HELA_EC50 in data set [2] (setting [4]) was over 98.3603 µM.

Consider `O=c1n(Cc2nc3nc(Cl)ccc3n2CCCCF)c2cnccc2n1C1CC1` [Compound 40, 3-((5-chloro-1-(4-fluorobutyl)-1H-imidazo[4,5-b]pyridin-2-yl)methyl)-1-cyclopropyl-1H-imidazo[4,5-c]pyridin-2(3H)-one], for which the EC50 in data set [1] (setting [3]) is 2 nM. The compound also yielded a TOX-HELA_EC50 in data set [2] (setting [4]) of over 98.3603 µM.

On to `O=c1n(Cc2nc3ncccc3n2CCCC(F)(F)F)c2cnccc2n1C1CC1` [Compound 41, 1-cyclopropyl-3-((1-(4,4,4-trifluorobutyl)-1H-imidazo[4,5-b]pyridin-2-yl)methyl)-1H-imidazo[4,5-c]pyridin-2(3H)-one], for which the EC50 in data set [1] (setting [3]) amounted to 7.1 nM. Further, the TOX-HELA_EC50 in data set [2] (setting [4]) is over 98.3603 µM.

Turning to `O=c1n(Cc2nc3ncccc3n2CCCCF)c2cnccc2n1C1CC1` [Compound 42, 1-cyclopropyl-3-((1-(4-fluorobutyl)-1H-imidazo[4,5-b]pyridin-2-yl)methyl)-1H-imidazo[4,5-c]pyridin-2(3H)-one], in data set [1] (setting [3]), the EC50 worked out at 5.2 nM. The TOX-HELA_EC50 in data set [2] (setting [4]) was over 98.3603 µM.

With `CC(C)CCn1c(Cn2c(=O)n(C3CC3)c3ccncc32)nc2nc(C(F)(F)F)ccc21` [Compound 44, 1-cyclopropyl-3-((1-isopentyl-5-(trifluoromethyl)-1H-imidazo[4,5-b]pyridin-2-yl)methyl)-1H-imidazo[4,5-c]pyridin-2(3H)-one], in data set [1] (setting [3]), the EC50 worked out at 19 nM. Besides, the TOX-HELA_EC50 in data set [2] (setting [4]) was over 98.3603 µM.
